Where “and” joins values, the source holds several entries; their conditions need not be identical. Identical values can stand only once. Like-named read-outs stand apart in the source and are kept apart here. Each block holds one compound with its values, some of them ahead of it.
Tests used:
[1] = biological target: PI3K-α (Homo sapiens, UniProt P42336); experiment: PI3K-alpha fluorescence polarization assay
[2] = biological target: Human mTOR (FLAG-TOR) (Homo sapiens, UniProt P42345); experiment: mTOR kinase assay (DELFIA format, purified enzyme); assay type: biochemical; settings: read-out: IC50 mTOR
Chain of Human mTOR (FLAG-TOR) (P42345 1360-2549 limits assumed): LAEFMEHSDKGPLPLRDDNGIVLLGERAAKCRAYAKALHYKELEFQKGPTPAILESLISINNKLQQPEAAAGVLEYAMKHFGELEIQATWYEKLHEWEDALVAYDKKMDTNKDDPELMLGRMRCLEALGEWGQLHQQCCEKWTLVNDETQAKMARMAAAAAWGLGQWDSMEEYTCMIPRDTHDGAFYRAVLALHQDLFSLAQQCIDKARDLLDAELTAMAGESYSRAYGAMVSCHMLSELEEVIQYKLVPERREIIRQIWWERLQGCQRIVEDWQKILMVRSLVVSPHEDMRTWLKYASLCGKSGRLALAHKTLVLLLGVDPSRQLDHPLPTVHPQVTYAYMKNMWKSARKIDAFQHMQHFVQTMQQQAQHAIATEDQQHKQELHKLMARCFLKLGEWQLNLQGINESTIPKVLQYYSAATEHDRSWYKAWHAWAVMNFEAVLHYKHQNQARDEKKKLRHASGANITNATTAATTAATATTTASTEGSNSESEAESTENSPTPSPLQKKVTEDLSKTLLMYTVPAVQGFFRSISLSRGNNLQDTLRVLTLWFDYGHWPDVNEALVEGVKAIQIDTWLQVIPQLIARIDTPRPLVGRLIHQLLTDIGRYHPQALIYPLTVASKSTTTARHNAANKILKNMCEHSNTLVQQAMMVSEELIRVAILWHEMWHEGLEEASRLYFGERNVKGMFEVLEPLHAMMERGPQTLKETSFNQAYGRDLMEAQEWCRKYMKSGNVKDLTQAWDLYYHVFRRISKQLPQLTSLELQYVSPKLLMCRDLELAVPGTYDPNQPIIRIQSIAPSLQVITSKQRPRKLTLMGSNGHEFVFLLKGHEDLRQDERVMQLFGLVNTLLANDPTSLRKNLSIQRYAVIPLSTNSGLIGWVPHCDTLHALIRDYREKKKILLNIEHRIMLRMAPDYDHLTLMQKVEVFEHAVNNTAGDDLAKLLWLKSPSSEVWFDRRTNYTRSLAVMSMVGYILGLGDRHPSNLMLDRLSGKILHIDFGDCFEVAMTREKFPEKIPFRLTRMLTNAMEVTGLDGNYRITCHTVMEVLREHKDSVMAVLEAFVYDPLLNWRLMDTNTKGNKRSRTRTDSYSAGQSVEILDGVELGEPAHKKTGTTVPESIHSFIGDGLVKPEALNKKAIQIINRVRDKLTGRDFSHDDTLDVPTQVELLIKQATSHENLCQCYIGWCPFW

[3] = tested on: human breast MDA-MB-361 tumor cell line; experiment: In vitro cell culture growth assay (MTS), MDA-MB-361; assay type: cell-based; settings: Homo sapiens, three days after drug treatment, read-out: IC50 MDA-MB-361
[4] = biological target: PI3K-γ (Homo sapiens, UniProt P48736); experiment: PI3K-gamma fluorescence polarization assay
Chain of PI3K-γ (P48736 whole entry, species assumed): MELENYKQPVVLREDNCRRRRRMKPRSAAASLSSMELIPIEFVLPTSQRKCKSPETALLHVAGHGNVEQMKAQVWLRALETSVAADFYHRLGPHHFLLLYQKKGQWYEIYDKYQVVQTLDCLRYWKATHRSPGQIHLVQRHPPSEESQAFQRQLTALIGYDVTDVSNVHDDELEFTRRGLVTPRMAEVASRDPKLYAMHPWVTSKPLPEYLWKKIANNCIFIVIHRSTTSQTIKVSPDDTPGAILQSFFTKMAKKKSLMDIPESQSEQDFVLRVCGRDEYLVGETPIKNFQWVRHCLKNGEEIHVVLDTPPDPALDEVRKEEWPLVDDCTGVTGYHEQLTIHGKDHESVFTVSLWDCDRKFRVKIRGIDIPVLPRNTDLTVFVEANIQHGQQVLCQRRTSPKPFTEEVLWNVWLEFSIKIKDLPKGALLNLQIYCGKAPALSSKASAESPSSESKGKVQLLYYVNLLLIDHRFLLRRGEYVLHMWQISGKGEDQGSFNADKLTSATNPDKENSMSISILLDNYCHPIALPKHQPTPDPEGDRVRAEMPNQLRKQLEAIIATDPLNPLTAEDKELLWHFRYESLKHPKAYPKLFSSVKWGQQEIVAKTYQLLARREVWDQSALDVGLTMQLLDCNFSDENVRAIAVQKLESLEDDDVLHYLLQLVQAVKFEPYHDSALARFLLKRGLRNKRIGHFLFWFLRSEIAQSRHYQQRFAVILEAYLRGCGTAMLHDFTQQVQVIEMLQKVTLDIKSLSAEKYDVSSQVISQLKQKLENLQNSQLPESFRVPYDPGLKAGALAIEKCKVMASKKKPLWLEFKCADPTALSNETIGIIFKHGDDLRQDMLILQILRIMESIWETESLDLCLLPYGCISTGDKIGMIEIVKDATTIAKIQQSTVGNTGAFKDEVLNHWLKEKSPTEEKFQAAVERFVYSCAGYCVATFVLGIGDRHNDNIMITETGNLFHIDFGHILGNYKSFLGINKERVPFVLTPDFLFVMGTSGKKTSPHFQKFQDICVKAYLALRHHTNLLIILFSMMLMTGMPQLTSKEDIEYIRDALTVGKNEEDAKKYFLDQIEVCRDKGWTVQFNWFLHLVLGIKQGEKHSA

[5] = tested on: human prostate PC3-mm2 tumor cell line; experiment: In vitro cell culture growth assay (MTS), PC3-mm2; assay type: cell-based; settings: Homo sapiens, PC3MM2, 72 h, three days after drug treatment, read-out: IC50 PC3-mm2
[6] = 72 h, MTS cell growth assay, MDA-MB-361 cells
[7] = MTS cell growth assay, PC3-mm2 cells
[8] = MDA-MB-361, 72 h, MTS cell growth assay, MDA-MB-361 cells
[9] = MDA-MB-361, 72 h, MTS cell growth assay

Chain of PI3K-α (P42336 whole entry, species assumed): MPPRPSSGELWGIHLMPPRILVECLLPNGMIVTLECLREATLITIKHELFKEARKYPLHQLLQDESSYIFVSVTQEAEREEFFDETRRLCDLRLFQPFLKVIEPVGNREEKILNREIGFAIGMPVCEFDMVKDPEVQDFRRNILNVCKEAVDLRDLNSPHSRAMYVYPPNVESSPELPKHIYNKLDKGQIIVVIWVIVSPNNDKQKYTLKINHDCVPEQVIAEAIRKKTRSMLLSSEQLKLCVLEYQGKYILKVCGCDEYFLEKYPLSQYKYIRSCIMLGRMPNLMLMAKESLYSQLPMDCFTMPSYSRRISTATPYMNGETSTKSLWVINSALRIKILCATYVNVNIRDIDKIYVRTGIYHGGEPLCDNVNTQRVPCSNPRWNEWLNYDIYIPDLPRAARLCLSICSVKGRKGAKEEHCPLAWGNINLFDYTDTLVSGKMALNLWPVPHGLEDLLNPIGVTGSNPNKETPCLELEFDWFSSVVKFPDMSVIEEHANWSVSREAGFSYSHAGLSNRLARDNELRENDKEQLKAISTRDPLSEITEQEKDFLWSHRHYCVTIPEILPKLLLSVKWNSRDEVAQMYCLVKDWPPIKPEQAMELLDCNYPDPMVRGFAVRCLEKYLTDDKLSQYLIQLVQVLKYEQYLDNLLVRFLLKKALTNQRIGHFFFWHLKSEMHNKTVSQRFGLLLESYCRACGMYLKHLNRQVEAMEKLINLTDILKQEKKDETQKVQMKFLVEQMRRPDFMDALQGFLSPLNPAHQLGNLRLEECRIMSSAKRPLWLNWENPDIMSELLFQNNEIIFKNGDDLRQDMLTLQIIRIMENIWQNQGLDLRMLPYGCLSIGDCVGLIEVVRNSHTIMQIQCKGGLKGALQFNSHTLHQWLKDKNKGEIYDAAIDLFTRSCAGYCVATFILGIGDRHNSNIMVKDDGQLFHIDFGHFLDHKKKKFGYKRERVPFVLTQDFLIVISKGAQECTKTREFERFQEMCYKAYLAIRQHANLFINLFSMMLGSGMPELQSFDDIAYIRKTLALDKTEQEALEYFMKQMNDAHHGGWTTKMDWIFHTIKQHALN
Chain of PI3K-α (P27986 whole entry partner, species assumed): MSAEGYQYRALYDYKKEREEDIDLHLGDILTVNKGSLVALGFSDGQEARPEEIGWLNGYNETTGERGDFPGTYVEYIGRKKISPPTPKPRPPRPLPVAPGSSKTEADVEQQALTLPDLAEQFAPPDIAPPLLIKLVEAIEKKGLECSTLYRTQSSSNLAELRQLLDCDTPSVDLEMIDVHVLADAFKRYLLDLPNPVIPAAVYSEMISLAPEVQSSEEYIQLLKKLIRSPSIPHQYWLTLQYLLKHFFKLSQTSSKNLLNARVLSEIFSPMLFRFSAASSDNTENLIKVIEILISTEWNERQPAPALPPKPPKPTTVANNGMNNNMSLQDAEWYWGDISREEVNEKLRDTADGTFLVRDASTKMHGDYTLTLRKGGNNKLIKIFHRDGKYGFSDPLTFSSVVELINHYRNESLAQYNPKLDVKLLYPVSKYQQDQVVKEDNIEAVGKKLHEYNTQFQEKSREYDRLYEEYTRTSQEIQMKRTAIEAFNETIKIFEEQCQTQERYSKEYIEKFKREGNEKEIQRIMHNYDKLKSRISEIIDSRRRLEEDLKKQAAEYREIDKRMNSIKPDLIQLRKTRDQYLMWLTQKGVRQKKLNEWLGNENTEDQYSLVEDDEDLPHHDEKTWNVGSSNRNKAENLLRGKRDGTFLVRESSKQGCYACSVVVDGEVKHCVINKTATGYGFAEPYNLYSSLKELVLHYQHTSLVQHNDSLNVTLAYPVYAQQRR

Structure (SMILES): O=C(Nc1ccc(-c2nc(N3CCOCC3)nc(N3C4CCC3COC4)n2)cc1)Nc1ccc(-c2nc(N3CCOCC3)nc(N3C4CCC3COC4)n2)cc1 [Example 751, 1,3-bis{4-[4-morpholin-4-yl-6-(3-oxa-8-azabicyclo[3.2.1]oct-8-yl)-1,3,5-triazin-2-yl]phenyl}urea]
- IC50 ([1]; read-out: IC50 PI3Kα): 143 nM
- IC50 [2]: 3 nM
- IC50 [3, 8]: 144 nM
- IC50 ([4]; read-out: IC50 PI3Kγ): 404 nM
- IC50 [5, 7]: 238 nM

Structure (SMILES): COCCNC(=O)c1ccc(NC(=O)Nc2ccc(-c3nc(N4CCOCC4)nc(N4C5CCCC4COC5)n3)cc2)cc1 [Example 797, N-(2-methoxyethyl)-4-[({4-[4-morpholin-4-yl-6-(3-oxa-9-azabicyclo[3.3.1]non-9-yl)-1,3,5-triazin-2-yl]phenyl}carbamoyl)amino]benzamide]
- IC50 ([1]; read-out: IC50 PI3Kα): 11.5 nM
- IC50 [2]: 1.3 nM
- IC50 ([3]; 72 h, MDA-MB-361 cells, MTS): 11 nM
- IC50 ([4]; read-out: IC50 PI3Kγ): 76 nM
- IC50 ([5]; PC3-mm2 cells, MTS): 29 nM

Structure (SMILES): O=C(Nc1ccc(C(=O)N2CCC(N3CCCC3)CC2)cc1)Nc1ccc(-c2nc(N3CCOCC3)nc(N3C4COCC3COC4)n2)cc1 [Example 776, 1-{4-[4-(3,7-dioxa-9-azabicyclo[3.3.1]non-9-yl)-6-morpholin-4-yl-1,3,5-triazin-2-yl]phenyl}-3-{4-[(4-pyrrolidin-1-ylpiperidin-1-yl)carbonyl]phenyl}urea]
- IC50 ([1]; read-out: IC50 PI3Kα): 3 nM
- IC50 [2]: 0.345 nM
- IC50 [3, 8]: < 3.2 nM
- IC50 ([4]; read-out: IC50 PI3Kγ): 29.5 nM
- IC50 [5, 7]: 6 nM

Structure (SMILES): CN1C2CCC1CC(Oc1nc(-c3ccc(NC(=O)Nc4ccncc4)cc3)nc(N3CCOCC3)n1)C2 (stereo not drawn) [Example 102, 1-{4-[4-(8-methyl-8-aza-bicyclo[3.2.1]oct-3-yloxy)-6-morpholin-4-yl-[1,3,5]triazin-2-yl]-phenyl}-3-pyridin-4-yl-urea]
- IC50 ([1]; read-out: IC50 PI3Kα): 6 nM
- IC50 [2]: 6.1 nM
- IC50 [3, 9]: 592 nM
- IC50 ([4]; read-out: IC50 PI3Kγ): 84 nM
- IC50 ([5]; MTS cell growth assay): 854 nM

Structure (SMILES): CC(O)c1cccc(NC(=O)Nc2ccc(-c3nc(N4CCOCC4)nc(N4CCOCC4)n3)cc2)c1 (stereo not drawn) [Example 57, 1-[4-(4,6-dimorpholin-4-yl-1,3,5-triazin-2-yl)phenyl]-3-[3-(1-hydroxyethyl)phenyl]urea]
- IC50 ([1]; read-out: IC50 PI3Kα): 8 nM
- IC50 [2]: 16.5 nM
- IC50 [3, 9]: 119 nM
- IC50 ([4]; read-out: IC50 PI3Kγ): 74 nM
- IC50 ([5]; MTS cell growth assay): 187 nM

Structure (SMILES): CNCCN(C)C(=O)c1ccc(NC(=O)Nc2ccc(-c3nc(N4CCOCC4)nc(N4C5CCCC4COC5)n3)cc2)cc1 [Example 802, N-methyl-N-[2-(methylamino)ethyl]-4-[({4-[4-morpholin-4-yl-6-(3-oxa-9-azabicyclo[3.3.1]non-9-yl)-1,3,5-triazin-2-yl]phenyl}carbamoyl)amino]benzamide]
- IC50 ([1]; read-out: IC50 PI3Kα): 3.5 nM
- IC50 [2]: 0.675 nM
- IC50 ([3]; 72 h, MDA-MB-361 cells, MTS): 3 nM
- IC50 ([4]; read-out: IC50 PI3Kγ): 23 nM
- IC50 ([5]; PC3-mm2 cells, MTS): 50 nM

Structure (SMILES): CN1CCN(C(=O)c2ccc(NC(=O)Nc3ccc(-c4nc(N5CCOCC5)nc(N5C6CCC5COC6)n4)cc3)cc2)CC1 [Example 697, 1-{4-[(4-methylpiperazin-1-yl)carbonyl]phenyl}-3-{4-[4-morpholin-4-yl-6-(3-oxa-8-azabicyclo[3.2.1]oct-8-yl)-1,3,5-triazin-2-yl]phenyl}urea]
- IC50 ([1]; read-out: IC50 PI3Kα): 2.7 nM
- IC50 [2]: 0.459 nM
- IC50 [3, 8]: < 30 nM
- IC50 ([4]; read-out: IC50 PI3Kγ): 42.7 nM
- IC50 [5, 7]: < 30 nM

Structure (SMILES): CN(C)C1CCN(C(=O)c2ccc(NC(=O)Nc3ccc(-c4nc(N5CCOCC5)nc(N5C6CCCC5COC6)n4)cc3)cc2)CC1 [Example 794, 1-(4-{[4-(dimethylamino)piperidin-1-yl]carbonyl}phenyl)-3-{4-[4-morpholin-4-yl-6-(3-oxa-9-azabicyclo[3.3.1]non-9-yl)-1,3,5-triazin-2-yl]phenyl}urea]
- IC50 ([1]; read-out: IC50 PI3Kα): 4.1 nM
- IC50 [2]: 0.63 nM
- IC50 [3, 8]: 2 nM
- IC50 ([4]; read-out: IC50 PI3Kγ): 26 nM
- IC50 [5, 7]: 20 nM

Structure (SMILES): O=C(Nc1ccc(-c2nc(N3CCOCC3)nc(N3C4CCC3COC4)n2)cc1)Nc1ccc(Cl)nc1 [Example 349, 1-(6-chloropyridin-3-yl)-3-{4-[4-morpholin-4-yl-6-(3-oxa-8-azabicyclo[3.2.1]oct-8-yl)-1,3,5-triazin-2-yl]phenyl}urea]
- IC50 ([1]; read-out: IC50 PI3Kα): 59 nM
- IC50 [2]: 2 nM
- IC50 [3, 9]: 87 nM
- IC50 ([4]; read-out: IC50 PI3Kγ): 163 nM
- IC50 ([4]; read-out: IC50 PI3Kγ, listed as 749): 164 nM
- IC50 [5, 7]: 81 nM
- IC50 ([5]; MTS cell growth assay): 81 nM

Further lines, results first:

- IC50 ([1]; read-out: IC50 PI3Kα): 13.5 nM
- IC50 [2]: 1 nM
- IC50 [3, 6]: 5 nM
- IC50 ([4]; read-out: IC50 PI3Kγ): 84.5 nM
- IC50 [5, 7]: 23 nM
Structure (SMILES): CC(C)N1CCN(C(=O)c2ccc(NC(=O)Nc3ccc(-c4nc(N5CCOC[C@H]5C)nc(N5CCOC[C@@H]5C)n4)cc3)cc2)CC1 [Example 630, 1-(4-{[4-(1-methylethyl)piperazin-1-yl]carbonyl}phenyl)-3-(4-{4-[(3R)-3-methylmorpholin-4-yl]-6-[(3S)-3-methylmorpholin-4-yl]-1,3,5-triazin-2-yl}phenyl)urea]

- IC50 ([1]; read-out: IC50 PI3Kα): 1.9 nM
- IC50 [2]: 0.765 nM
- IC50 ([3]; 72 h, MDA-MB-361 cells, MTS): 3 nM
- IC50 ([4]; read-out: IC50 PI3Kγ): 24 nM
- IC50 ([5]; PC3-mm2 cells, MTS): 24 nM
Structure (SMILES): CN(C)CCNC(=O)c1ccc(NC(=O)Nc2ccc(-c3nc(N4CCOCC4)nc(N4CC5CCC4CO5)n3)cc2)cc1 (stereo not drawn) [Example 815, N-[2-(dimethylamino)ethyl]-4-[({4-[4-morpholin-4-yl-6-(2-oxa-5-azabicyclo[2.2.2]oct-5-yl)-1,3,5-triazin-2-yl]phenyl}carbamoyl)amino]benzamide]

- IC50 [1]: < 1.9 nM
- IC50 ([1]; read-out: IC50 PI3Kα): 0.7 nM
- IC50 [2]: 0.9 nM and 0.97 nM
- IC50 [3, 9]: 12 nM
- IC50 ([4]; read-out: IC50 PI3Kγ): 12 nM
- IC50 ([4]; read-out: IC50 PI3Kγ, listed as 508): 12.5 nM
- IC50 [5, 7]: 36.3 nM
- IC50 ([5]; MTS cell growth assay): 36.3 nM
Structure (SMILES): CN(C)CCNC(=O)c1ccc(NC(=O)Nc2ccc(-c3nc(C4=CCOCC4)nc(N4CCOCC4)n3)cc2)cc1 [Example 284, 4-[({4-[4-(3,6-dihydro-2H-pyran-4-yl)-6-morpholin-4-yl-1,3,5-triazin-2-yl]phenyl}carbamoyl)amino]-N-[2-(dimethylamino)ethyl]benzamide]

- IC50 ([1]; read-out: IC50 PI3Kα): 26 nM
- IC50 [2]: 4 nM
- IC50 [3, 6]: 28 nM
- IC50 ([4]; read-out: IC50 PI3Kγ): 95 nM
- IC50 [5, 7]: 133 nM
Structure (SMILES): CCCCN1CCN(C(=O)c2ccc(NC(=O)Nc3ccc(-c4nc(N5CCOC[C@@H]5C)nc(N5CCOC[C@@H]5C)n4)cc3)cc2)CC1 [Example 629, 1-(4-{4,6-bis[(3S)-3-methylmorpholin-4-yl]-1,3,5-triazin-2-yl}phenyl)-3-{4-[(4-butylpiperazin-1-yl)carbonyl]phenyl}urea]

- IC50 ([1]; read-out: IC50 PI3Kα): 2.3 nM
- IC50 [2]: 0.52 nM
- IC50 [3, 8]: 2 nM
- IC50 ([4]; read-out: IC50 PI3Kγ): 10.3 nM
- IC50 [5, 7]: 10 nM
Structure (SMILES): CN1CCN(C(=O)c2ccc(NC(=O)Nc3ccc(-c4nc(C5CCOCC5)nc(N5CCOCC5)n4)cc3)cc2)CC1 [Example 511, 1-{4-[(4-methylpiperazin-1-yl)carbonyl]phenyl}-3-{4-[4-morpholin-4-yl-6-(tetrahydro-2H-pyran-4-yl)-1,3,5-triazin-2-yl]phenyl}urea]

- IC50 ([1]; read-out: IC50 PI3Kα): 7 nM
- IC50 [2]: 1.65 nM
- IC50 [3, 9]: 59 nM
- IC50 ([4]; read-out: IC50 PI3Kγ): 30 nM
- IC50 ([5]; MTS cell growth assay): 66 nM
Structure (SMILES): CN(C)c1ccc(NC(=O)Nc2ccc(-c3nc(OC4CCOCC4)nc(N4CCOCC4)n3)cc2)cc1 [Example 66, 1-[4-(dimethylamino)phenyl]-3-{4-[4-morpholin-4-yl-6-(tetrahydro-2H-pyran-4-yloxy)-1,3,5-triazin-2-yl]phenyl}urea]

- IC50 ([1]; read-out: IC50 PI3Kα): 3.5 nM
- IC50 [2]: 1.1 nM
- IC50 [3, 8]: 8 nM
- IC50 ([4]; read-out: IC50 PI3Kγ): 17 nM
- IC50 [5, 7]: 35 nM
Structure (SMILES): CC(C)c1nc(-c2ccc(NC(=O)Nc3ccc(C(=O)N4CCN(C(C)C)CC4)cc3)cc2)nc(N2CCOCC2)n1 [Example 491, 1-{4-[4-(1-methylethyl)-6-morpholin-4-yl-1,3,5-triazin-2-yl]phenyl}-3-(4-{[4-(1-methylethyl)piperazin-1-yl]carbonyl}phenyl)urea]

- IC50 ([1]; read-out: IC50 PI3Kα): 2.6 nM
- IC50 [2]: 2 nM
- IC50 [3, 6]: 28 nM
- IC50 ([4]; read-out: IC50 PI3Kγ): 18 nM
- IC50 [5, 7]: 55 nM
Structure (SMILES): O=C(Nc1ccncc1)Nc1ccc(-c2nc(N3CCCOCC3)nc(N3CCOCC3)n2)cc1 [Example 566, 1-{4-[4-morpholin-4-yl-6-(1,4-oxazepan-4-yl)-1,3,5-triazin-2-yl]phenyl}-3-pyridin-4-ylurea]

- IC50 [1]: 11.5 nM
- IC50 [2]: 3 nM
- IC50 [3, 8]: 24 nM
- IC50 [4]: 93.5 nM
- IC50 [5, 7]: 26 nM
Structure (SMILES): C[C@H]1COCCN1c1nc(-c2ccc(NC(=O)Nc3ccncc3)cc2)nc(N2CCOC[C@@H]2C)n1 [Example 609, 1-(4-{4,6-bis[(3S)-3-methylmorpholin-4-yl]-1,3,5-triazin-2-yl}phenyl)-3-pyridin-4-ylurea]

- IC50 ([1]; read-out: IC50 PI3Kα): 2 nM
- IC50 [2]: 0.85 nM
- IC50 [3, 9]: 1 nM
- IC50 ([4]; read-out: IC50 PI3Kγ): 19 nM
- IC50 ([5]; MTS cell growth assay): 13 nM
Structure (SMILES): O=C(Nc1ccc(C(=O)N2CCC(N3CCOCC3)CC2)cc1)Nc1ccc(-c2nc(N3CCOCC3)nc(N3CCOCC3)n2)cc1 [Example 72, 1-(4-(4,6-dimorpholino-1,3,5-triazin-2-yl)phenyl)-3-(4-(4-morpholinopiperidine-1-carbonyl)phenyl)urea]

- IC50 ([1]; read-out: IC50 PI3Kα): 16.5 nM
- IC50 [2]: 3 nM
- IC50 [3, 6]: 12 nM
- IC50 ([4]; read-out: IC50 PI3Kγ): 102 nM
- IC50 [5, 7]: 43 nM
Structure (SMILES): CCN1CCN(C(=O)c2ccc(NC(=O)Nc3ccc(-c4nc(N5CCOC[C@H]5C)nc(N5CCOC[C@@H]5C)n4)cc3)cc2)CC1 [Example 625, 1-{4-[(4-ethylpiperazin-1-yl)carbonyl]phenyl}-3-(4-{4-[(3R)-3-methylmorpholin-4-yl]-6-[(3S)-3-methylmorpholin-4-yl]-1,3,5-triazin-2-yl}phenyl)urea]

Source: patent publication US20090304692A1, “TRIAZINE COMPOUNDS AS PI3 KINASE AND MTOR INHIBITORS” (Wyeth, priority 2008, published 2009)
